Data set [1] has as its system murine Swiss albino fibroblast (3T3) cell line. The experiment in a line: Cell viability, NRU assay, 3T3. The data set is classed as cell-based. The settings on record: Mus musculus, 24 h incubation, NRU endpoint. How it is done: (§1) Two different endpoints, 3-(4,5-dimethyl-2-thiazolyl)-2,5-diphenyltetrazolium bromide (MTT) and neutral red uptake (NRU), were used to assess differences in cell-induced cytotoxicity. […] In addition, NRU evaluates the interaction of these drugs with the plasmatic membrane. Cell responses were determined from the MTT [16] and NRU [17] assays, using the two proposed cell lines. Cytotoxicity assays were performed at concentrations equal to 80 and 250 µg/mL. The IC50 value, referring to the half-maximal inhibitory concentration, was determined as a key parameter in cytotoxicity studies (Table 1). It plays a crucial role in evaluating cell viability and assessing cellular responses to various drugs or toxins. For cases where IC50 values were below 80 µg/mL, additional studies at lower concentrations were conducted to accurately determine these values. […] The selectivity index (SI), used as a measurement of action against the tumor cell line in comparison with a normal cell line, was also included.
(§2) • In Vitro Assay Using Human Erythrocytes • - Acquisition and Extraction of the Erythrocytes Human blood samples were obtained from the Banc de Sang i Teixits de Barcelona (Spain) from the Catalan Department of Health. Blood was deposited in tubes with the anticoagulant EDTA-K3. Blood samples were centrifuged at 3000 rpm and 4 °C for 10 min (Megafuge 2.0 R. Heraeus Instruments, Hanau, Germany) to induce sedimentation. Plasma was extracted with a Pasteur pipette. Next, the residual pellet was washed with PBS at pH 7.4. This procedure was repeated three times to remove residual leukocytes and platelets and to concentrate the erythrocytes. Following the last wash, the erythrocyte suspension was diluted (1:1) in PBS at pH 7.4 to obtain a suitable erythrocyte suspension (cell density of 8 × 10^9 cell/mL). • - Hemolysis Assay The hemolysis assay determined the capability of different compounds to induce the hemolysis of the erythrocyte membrane. Stock solutions of each compound at 1 mg/mL in PBS at pH 7.4 were prepared. Different volumes (10–80 μL) were placed in polystyrene tubes, and an aliquot of 25 µL of the erythrocyte suspensions was added to each tube. The final volume was 1 mL. The tubes were incubated at room temperature under rotatory conditions. Then, the tubes were centrifuged at 10,000 rpm for 5 min. The supernatants’ absorbance at 540 nm (Shimadzu UV-160A, Shimadzu, Duisburg, Germany) was compared with that of the positive (erythrocytes hemolyzed with distilled water) and negative (erythrocyte suspension in PBS at pH 7.4) controls. The degree of hemolysis was determined using the following equation: Hemolysis (%) = 100 × (Abs − Abs0)/(Abs100 − Abs0) where Abs, Abs0, and Abs100 are the absorbance of the test samples, of the suspension treated with isotonic phosphate–buffered saline (PBS), and of the suspension of complete hemolysis treated with distilled water, respectively. • In Vitro Essay Using Cell Cultures The murine Swiss albino fibroblasts (3T3) and the squamous cell carcinoma (A431) cell lines were obtained from Celltec UB. Cells were grown in DMEM medium (4.5 g/L glucose) supplemented with 10% (v/v) FBS, 2 mM L-glutamine, 100 U/mL penicillin, and 100 µg/mL streptomycin at 37 °C with 5% CO2. Cells were routinely cultured in 75 cm^2 culture flasks and were trypsinized using trypsin–EDTA when the cells reached approximately 80% confluence. The trypan blue assay, which allows for the direct identification and enumeration of the live (unstained) and dead (blue) cells in the cell population, was used to evaluate the viability of the cells in the cell suspension obtained. • - Cell Viability Assays Cell lines of 3T3 (1 × 10^5 cells/mL) and A431 (5 × 10^4 cells/mL) were grown at defined densities in the 60 central wells of a 96-well plate. The cells were incubated for 24 h in 5% CO2 at 37 °C. […]

The test system is the same in data set [2]. The experiment in a line: Cell viability, MTT assay, 3T3. It is filed as cell-based. Conditions: 24 h incubation, MTT endpoint. How it is done:
as §1, §2
A general note: Tetrazolium assays rely on reduction of a dye to a coloured formazan, in cell work by metabolically active cells.

Data set [3] concerns A431 cell line (squamous cell carcinoma). Description: Cell viability, NRU assay, A431. The data set is classed as cell-based, human. How it is done:
as §1, §2

The next data set concerns A431 cells. The experiment in a line: AO/EB double staining, cellular death events. It is filed as cell-based, human. The settings on record: A431, 24 h, 10-160 µg/mL.
Data set [4] is described as follows: Fish embryo acute toxicity (FET): lethality and dysmorphogenesis. The data set is classed as in vivo. Conditions: zebrafish, in vivo, exposure 2 to 72 hpf, read at 72 hpf. How it is done:
(§3) Zebrafish provide a widely used vertebrate model for cost-effective, in vivo whole-organism screening.
(§4) (2 mM CaCl2•2 H2O; 0.5 mM MgSO4•7 H2O; 0.75 mM NaHCO3; 0.07 mM KCl). The fish were maintained at a temperature of 26 ± 1 °C on a 14-h light and 10-h dark cycle and were fed daily in the morning with Artemia salina, then with commercial flake food in the afternoon (SDS400, Special Diet Services, Dietex, France). For optimal Zebrafish reproduction, we used animals between 6 months and a year old. The day before the eggs were needed, males and females were placed in a breeding tank with plants at a 2:1 male-to-female ratio (usually using 8 males and 4 females in a big breeding tank). The following morning, eggs were collected 30 min after the lights were turned on. […] Fertilized, non-coagulated, and synchronously divided eggs were selected using a stereomicroscope (Motic SMZ168, Motic Hong Kong Ltd., Hong Kong, China) and transferred to 6-well plates (10 embryos/well). The embryos were exposed to freshly prepared tested concentrations of the compound in 0.3× Danieau’s solution. The chemical stock solution was prepared in 100% dimethylsulfoxide (DMSO) and subsequently diluted in Danieau’s buffer with a final DMSO concentration of 1% (v/v). Testing was carried out using five concentrations with a negative control of solvent with 1% of DMSO. Embryos were incubated at 27 ± 1 °C with a light:dark cycle of 14:10 h until 72 h post-fertilization (hpf) under semi-static conditions, as exposure solutions were renewed with freshly prepared solutions every 24 h. • Lethality and dysmorphogenesis evaluation At 24, 48, and 72 hpf, the embryos were observed under a stereomicroscope to assess lethality. […] At the end of the test, dysmorphogenesis was evaluated in the live embryos only. The average lethality and dysmorphogenesis were calculated for 10 embryos per concentration, followed by averaging the results of at least three independent experiments. […] Subsequently, the TER test was conducted according to the protocol described by Guzman et al.. […] The distance was averaged and converted from pixels to millimeters. This assay was performed only on larvae from concentration groups where both the lethality and dysmorphogenesis were less than 20%. Six larvae per concentration group were evaluated in at least three independent experiments. • Statistical analysis Statistical analysis was performed using GraphPad Prism v.10.0.2. The TER test was analyzed using a one-way ANOVA and a post hoc multiple-comparison Dunnett test. The significance threshold was established at p < 0.05.

The subject of the next data set is Zebrafish embryos. The data set is described as above. The data set is classed as in vivo. How it is done:
as §3, §4

Converted amounts (≈) assume the structure as drawn.

Turning to `CC(C)(C)N1C(=O)C(Cl)(Cl)C1c1ccccc1` (stereo not shown) [Compound 1], the IC50 (commonly the concentration needed to halve the response being measured) was more than 250 µg/mL in data set [1]; 210 µg/mL (≈ 772 µM) in data set [2] (Mus musculus, 24 h); 35 µg/mL (≈ 129 µM) in data set [3] (Homo sapiens, A-431, 24 h, 24 h incubation, NRU endpoint, A431). In addition, the “IC50 (MTT) 3T3” value in data set [2] is 210.42 ± 2.40 µg/mL (≈ 773 µM). Also, the “IC50 (NRU) A431” value in data set [3] (24 h incubation, NRU endpoint, A431) was 35.74 ± 3.24 µg/mL (≈ 131 µM). In addition, the “SI (NRU), selectivity index” value in data set [3] (SI = IC50 (3T3)/IC50 (A431), NRU) is >>6.99. The “mode of cell death” value in the data set with A431 cells is recorded as “induces cell death primarily via apoptosis”. Further, in data set [4], the 50% lethal concentration (LC50) – broadly, the concentration that kills 50% of the test population – worked out at 14.9 µg/mL (≈ 54.8 µM). Besides, in the data set with Zebrafish embryos (Danio rerio, read-out: EC50 (dysmorphogenesis)), the EC50 (as a rule, the midpoint of the concentration-response curve) turned out to be 5.23 µg/mL (≈ 19.2 µM). For the same compound, in the data set on Zebrafish embryos (TI = LC50/EC50), the “teratogenic index (TI)” value is given as 2.85. Further, the teratogenicity classification entry in the data set with Zebrafish embryos (TI > 2) is recorded as “potential teratogen”. The morphological abnormalities entry in the data set with Zebrafish embryos (embryos exposed 2 to 72 hpf) is “pericardial edema, large yolk sacs, and flexion abnormalities”. The “LC50 (lethality)” value in the data set on Zebrafish embryos (exposure 2 to 72 hpf, read at 72 hpf) is listed as 14.9 µg/mL (≈ 54.7 µM).

Source of the values: PMC12030062, “From In Vitro Cytotoxicity to In Vivo Zebrafish Assays: A Study on 3,3-Dichloro β-, γ- and δ-Lactams and Their Biological Activity Profiles” (Pharmaceuticals, 2025).
